Results taken from the NIST ThermoML archive (doi:10.1016/j.jct.2016.09.041).

Assay: molar heat capacity at constant pressure
Settings: 101.33 kPa, Crystal 1, Small (less than 1 g) adiabatic calorimetry

N[C@@H](Cc1c[nH]c2ccccc12)C(=O)O [L-tryptophan]
Settings	molar heat capacity at constant pressure [J/K/mol]
124.29 K	103.18
125.09 K	103.85
125.89 K	104.51
126.7 K	105.01
127.5 K	105.51
128.3 K	106.18
129.1 K	106.67
129.91 K	107.26
130 K	107.26
130.71 K	107.84
131.51 K	108.34
132.31 K	108.75
133.12 K	109.25
133.92 K	109.67
134.72 K	110.5
135.52 K	111.08
136.33 K	111.66
137.13 K	112.16
137.93 K	112.74
138.74 K	113.33
139.54 K	113.83
140 K	114.16
140.34 K	114.32
141.14 K	114.74
141.95 K	115.49
142.75 K	116.07
143.55 K	116.57
144.35 K	117.23
145.16 K	117.65
145.96 K	118.31
146.76 K	118.73
147.56 K	119.31
148.37 K	119.81
149.17 K	120.64
149.97 K	121.14
150 K	121.06
150.77 K	121.56
151.57 K	122.22
152.38 K	122.97
153.18 K	123.22
153.98 K	123.64
154.78 K	124.55
155.58 K	124.8
156.38 K	125.55
157.18 K	126.13
157.98 K	126.46
158.79 K	127.46
159.59 K	127.96
160 K	128.04
160.39 K	128.13
161.19 K	128.96
161.99 K	129.62
162.79 K	130.2
163.59 K	130.79
164.39 K	131.29
165.19 K	131.7
166 K	131.95
166.8 K	132.7
167.6 K	133.45
168.39 K	134.03
169.19 K	134.61
169.99 K	135.19
170 K	135.03
170.79 K	135.61
171.59 K	136.19
172.39 K	136.52
173.19 K	137.11
173.99 K	137.6
174.79 K	138.1
175.59 K	138.77
176.39 K	139.18
177.19 K	140.1
177.99 K	140.51
178.79 K	141.01
179.59 K	141.6
180 K	141.93
180.38 K	142.09
181.18 K	142.68
181.97 K	143.34
182.76 K	143.84
183.57 K	144.59
184.36 K	144.92
185.16 K	145.59
185.96 K	146.17
186.75 K	146.67
187.55 K	147.25
188.34 K	147.67
189.14 K	148.5
189.93 K	149.16
190 K	148.91
190.73 K	149.58
191.53 K	149.91
192.32 K	150.49
193.12 K	151.07
193.9 K	151.91
194.7 K	152.4
195.49 K	152.82
196.29 K	153.24
197.08 K	153.82
197.87 K	154.4
198.67 K	155.23
199.46 K	155.65
200 K	156.06
200.26 K	156.31
201.25 K	156.89
202.45 K	157.81
203.66 K	158.64
204.86 K	159.55
206.06 K	160.3
207.27 K	161.3
208.48 K	162.22
209.68 K	162.96
210 K	163.21
210.89 K	163.88
212.09 K	164.54
213.3 K	165.54
214.51 K	166.21
215.73 K	166.95
216.93 K	167.95
218.14 K	169.28
219.36 K	170.2
220 K	170.28
220.57 K	170.86
221.79 K	171.61
223 K	172.77
224.22 K	173.69
225.43 K	174.11
226.65 K	175.1
227.87 K	176.35
229.09 K	177.18
230 K	177.76
230.31 K	178.01
231.54 K	179.09
232.76 K	179.76
233.98 K	180.59
235.21 K	181.67
236.43 K	182.75
237.66 K	183.67
238.88 K	184.5
240 K	185.25
240.11 K	185.41
241.34 K	186.24
242.57 K	187.33
243.8 K	188.07
245.03 K	188.74
246.26 K	190.07
247.5 K	190.82
248.75 K	191.98
249.99 K	192.56
250 K	192.81
251.23 K	193.73
252.46 K	194.81
253.7 K	195.72
254.94 K	196.72
256.18 K	197.63
257.43 K	198.47
258.67 K	199.3
259.92 K	200.3
260 K	200.38
261.16 K	201.13
262.41 K	202.04
263.66 K	203.04
264.91 K	204.12
266.17 K	204.87
267.42 K	206.03
268.69 K	207.2
269.95 K	208.19
270 K	208.03
271.21 K	208.86
272.47 K	210.02
273.73 K	210.77
274.99 K	211.6
276.25 K	212.93
277.51 K	213.85
278.78 K	214.51
280 K	215.76
280.05 K	215.84
281.32 K	216.76
282.59 K	217.42
283.86 K	218.5
285.13 K	219.83
286.41 K	220.17
287.69 K	221.58
288.96 K	222.74
290 K	223.83
290.24 K	223.49
291.52 K	224.57
292.8 K	225.16
294.08 K	226.4
295.36 K	227.48
296.65 K	227.73
297.93 K	228.9
298.15 K	228.98
299.23 K	229.65
300 K	230.31
300.76 K	230.56
302.42 K	231.39
304.07 K	232.81
305.72 K	234.22
307.35 K	235.3
308.99 K	236.3
310 K	237.05
310.61 K	237.38
312.22 K	239.21
313.83 K	240.04
315.43 K	240.54
317.02 K	241.62
318.6 K	242.87
320 K	243.61
320.17 K	243.78
321.71 K	244.28
323.27 K	246.27
324.81 K	246.94
326.3 K	247.85
327.82 K	248.94
329.34 K	250.02
330 K	250.52
330.82 K	251.18
332.31 K	252.43
333.79 K	253.51
335.26 K	254.09
336.72 K	255.17
338.17 K	256.67
339.59 K	256.42
340 K	258
341.01 K	258.66
342.42 K	259.91
343.82 K	260.91
345.21 K	262.16
346.6 K	263.24
347.91 K	263.9
349.09 K	265.81
350 K	265.98
350.43 K	266.89
351.76 K	268.06
353.08 K	269.06
354.39 K	269.47
355.67 K	270.14
356.94 K	271.3
358.2 K	272.71
359.46 K	273.55
360 K	273.71
360.69 K	274.04
361.93 K	275.13
363.07 K	275.87
364.26 K	276.54
365.45 K	277.29
366.62 K	277.95
367.71 K	277.87
368.55 K	278.87
369.68 K	279.87
370 K	279.62
370.81 K	278.62
371.9 K	280.61
372.99 K	281.53
